Experimental findings from article PMC4792926, “G9a-mediated methylation of ERα links the PHF20/MOF histone acetyltransferase complex to hormonal gene expression” (Nature Communications, 2016) are described below.

The subject of experiment [1] is G9a. As to the kind of experiment: In vitro methylation of ERα protein fragments by G9a. The class given is biochemical, human. The note with it: 2 μg G9a, 2 μg substrate, 3H-S-adenosylmethionine, pH 8.0, 30 °C, 4 h; autoradiography. From the text:
Complementary DNA encoding full-length human ERα, G9a, PHF20 and NCOA2 genes were cloned into pENTR3C and subsequently cloned into destination vectors using the Gateway technique (Invitrogen). The destination vectors used in this study include p3Flag and pCAG-Flag (for Flag-tag expression), pCAG-Myc (for Myc-tag expression) and pCAG (for no-tag expression). pERE-Luc Firefly luciferase and pRl-TK Renilla luciferase were used for the reporter assays. For in vitro enzymatic assays, G9a, ERα, ERα fragments and mutants were cloned into pGEX-6P1 (GE Healthcare) to express and purify the proteins as GST-tagged proteins. Point mutations were generated using site-directed mutagenesis (Stratagene). shRNA constructs were purchased from Sigma. The G9a-targeting shRNA sequences used in this study were 5′-[…]-3′, 5′-[…]-3′ and 5′-[…]-3′ and the PHF20-targeting shRNA sequences were 5′-[…]-3′ and 5′-[…]-3′. Peptides were synthesized at the W.M. Keck Facility at Yale University or at CPC-Scientific. Polyclonal anti-dimethylated ERαK235 rabbit sera (CPC Scientific, 1:500) were affinity-purified with an ERαK235me2 peptide and depleted against the corresponding unmethylated peptide. Anti-G9a antibodies were purchased from MBL (D141-3, 1:1,000) and Sigma (G6919, 1:2,000); anti-PHF20 (3934S, 1:1,000) antibody from Cell Signaling; anti-ERα (Sc-503, 1:1,000) and anti-GST (Sc-459, 1:1,000) antibodies from Santa Cruz; anti-FLAG (F-1804, 1:5,000) and anti-tubulin (T8328, 1:5,000) antibodies from Sigma; anti-H4K16ac (07–329, 1:1,000) antibody from Millipore; anti-total H3 (ab1791, 1:5,000) and anti-H3K9me2 (ab1220, 1:1,000) antibodies from Abcam; and streptavidin horseradish peroxidase from Thermo Scientific. 17β-estradiol and the G9a inhibitor BIX-01294 were purchased from Sigma.
The pGEX constructs encoding human G9a, ERα and ERα fragments including AF1 (aa 1–190), DBD (aa 175–250), hinge (aa 251–310), DBD+hinge (aa 175–310), LBD (aa 305–596) and the second Tudor domain of PHF20 (aa 58–148) were expressed in E. coli Rosetta (DE3) pLysS cells. After induction with IPTG (0.5 mM) for 16–18 h at 18 °C, cells were collected by centrifugation at 5,000g, lysed by sonication and purified using Glutathione Sepharose 4B beads (GE Healthcare). […]
Recombinant G9a (2 μg) was incubated with recombinant ERα fragments proteins (2 μg) in methylation assay buffer (50 mM Tris-HCl, pH 8.0, 10% glycerol, 20 mM KCl, 5 mM MgCl2, 1 mM DTT, 1 mM PMSF and 0.1 mM unlabelled or ^3H-labelled S-adenosylmethionine (GE Healthcare)) at 30 °C for 4 h. Reactions were stopped by adding SDS–PAGE sample buffer, and the methylation status was determined by autoradiography or western blotting analysis. […]

In experiment [2] the test system is G9a. In words: In vitro methylation of ERα peptides by G9a, mass spectrometry. The note with it: 1 μg peptide, pH 8.0, 30 °C, 4 h. The class given is biochemical, human.
A further experiment has as its system PHF20 Tudor. In words: 1H,15N HSQC NMR titration of PHF20 Tudor. The class given is binding, human. As to conditions: 0.2 mM 15N-labelled PHF20 Tudor, 25 mM Tris-HCl pH 7.5, 150 mM NaCl, 298 K, 600 MHz. How it is done: The pGEX constructs encoding human G9a, ERα and ERα fragments including AF1 (aa 1–190), DBD (aa 175–250), hinge (aa 251–310), DBD+hinge (aa 175–310), LBD (aa 305–596) and the second Tudor domain of PHF20 (aa 58–148) were expressed in E. coli Rosetta (DE3) pLysS cells. After induction with IPTG (0.5 mM) for 16–18 h at 18 °C, cells were collected by centrifugation at 5,000g, lysed by sonication and purified using Glutathione Sepharose 4B beads (GE Healthcare). For the NMR titration assays, PHF20 Tudor was expressed in the ^15NH4Cl-supplemented (Sigma) minimal media, and the GST tag was cleaved with PreScission protease, and the cleaved protein was concentrated using Millipore concentrators (Millipore).
The ^1H,^15N HSQC spectra of 0.2 mM uniformly ^15N-labelled PHF20 Tudor (in 25 mM Tris-HCl, pH 7.5 buffer, 150 mM NaCl, 5 mM dithiothreitol and ∼8% D2O) were collected at 298 K on a Varian INOVA 600 MHz spectrometer. Binding was monitored by titrating unmodified ERα and ERαK235me2 peptides (aa 228–239) against the PHF20 Tudor domain. NMR data were processed and analysed with NMRPipe and NMRDraw as previously described. NMR assignments for PHF20 Tudor were taken from the Biological Magnetic Resonance Data Bank (BMRB 17673)[31].

Consider “hinge region: recombinant ERα hinge fragment (aa 251–310) (MKGGIRKDRRGGRMLKHKRQRDDGEGRGEVGSAGDMRAANLWPSPLMIKRSKKNSLALSL; UniProt P03372 251-310, looked up, fragment)”, for which the “methylation by G9a” value with G9a [1] was “methylated both the DBD and the hinge region”.

Turning to “ERα peptide containing K235: ERα peptide spanning amino acids 227–244, G9a substrate (CTIDKNRRKSCQACRLRK; UniProt P03372 227-244, looked up, fragment)”, the “increase in mass on G9a methylation” value with G9a [2] was determined as 28 Da.

In the case of “peptide containing K303: ERα peptide spanning amino acids 294–313, G9a substrate (SPLMIKRSKKNSLALSLTAD; UniProt P03372 294-313, looked up, fragment)”, the “increase in mass on G9a methylation” value with G9a [2] amounted to 14 Da.

In the case of “unmethylated ERα (aa 228–239) peptide: unmodified ERα peptide (aa 228–239) (TIDKNRRKSCQA)”, the “chemical shift changes of PHF20 Tudor” value with PHF20 Tudor is “no resonance perturbations were observed”.

B1: DBD and hinge fragment: recombinant ERα fragment DBD+hinge (aa 175–310) (protein, UniProt P03372 175-310, looked up, fragment)
chain: AMESAKETRYCAVCNDYASGYHYGVWSCEGCKAFFKRSIQGHNDYMCPATNQCTIDKNRRKSCQACRLRKCYEVGMMKGGIRKDRRGGRMLKHKRQRDDGEGRGEVGSAGDMRAANLWPSPLMIKRSKKNSLALSL
For the molecule B1, in the experiment with G9a [1], the “methylation by G9a” value was “specifically methylated”.

B2: AF-1: recombinant ERα N-terminal activation function domain (aa 1–190) (protein, UniProt P03372 1-190, looked up, fragment)
chain: MTMTLHTKASGMALLHQIQGNELEPLNRPQLKIPLERPLGEVYLDSSKPAVYNYPEGAAYEFNAAAAANAQVYGQTGLPYGPGSEAAAFGSNGLGGFPPLNSVSPSPLMLLHPPPQLSPFLQPHGQQVPYYLENEPSGYTVREAGPPAFYRPNSDNRRQGGRERLASTNDKGSMAMESAKETRYCAVCND
For B2, the “methylation by G9a” value with G9a [1] is “not the AF-1 and LBD fragments”.

B3: DBD: recombinant ERα DNA-binding domain (aa 175–250) (protein, UniProt P03372 175-250, looked up, fragment)
chain: AMESAKETRYCAVCNDYASGYHYGVWSCEGCKAFFKRSIQGHNDYMCPATNQCTIDKNRRKSCQACRLRKCYEVGM
Consider B3, for which the “methylation by G9a” value with G9a [1] was “methylated both the DBD and the hinge region”.
